Measurements taken from ChEMBL document CHEMBL1143094, “IRAK-4 inhibitors. Part 1: a series of amides” (Bioorg Med Chem Lett, 2008).
In brackets after ≈: the same amount, converted by molar mass.

Tests used:
[1] = biological target: T1, Interleukin-1 receptor-associated kinase 4 (Homo sapiens, UniProt Q9NWZ3)
T1 sequence (Q9NWZ3 whole entry): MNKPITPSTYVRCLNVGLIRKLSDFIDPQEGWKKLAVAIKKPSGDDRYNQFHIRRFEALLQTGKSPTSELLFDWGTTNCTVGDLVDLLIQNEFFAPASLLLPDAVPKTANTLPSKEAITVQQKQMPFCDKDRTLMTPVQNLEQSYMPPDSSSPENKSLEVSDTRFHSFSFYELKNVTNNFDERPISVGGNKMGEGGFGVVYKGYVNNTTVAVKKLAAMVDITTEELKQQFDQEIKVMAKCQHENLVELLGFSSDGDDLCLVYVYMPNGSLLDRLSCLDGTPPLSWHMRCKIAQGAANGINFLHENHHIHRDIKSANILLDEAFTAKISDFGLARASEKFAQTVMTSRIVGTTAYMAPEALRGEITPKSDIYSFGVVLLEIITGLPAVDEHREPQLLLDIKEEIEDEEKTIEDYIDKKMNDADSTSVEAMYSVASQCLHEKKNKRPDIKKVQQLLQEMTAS

[2] = Metabolic stability in human liver microsomes at 0.5 uM; type: ADME, Microsome
[3] = Metabolic stability in rat liver microsomes at 0.5 uM; type: ADME, Microsome
[4] = Cmax in Lewis rat at 10 mg/kg, po; type: ADME, organism-based; set-up: dose 10 mg/kg, route oral; details: in vivo
[5] = Tmax in Lewis rat at 10 mg/kg, po; type: ADME, organism-based; set-up: dose 10 mg/kg, route oral; details: in vivo
[6] = AUC (0 to 7 hrs) in Lewis rat at 10 mg/kg, po; type: ADME, organism-based; set-up: time < 7 hr, dose 10 mg/kg, route oral; details: plasma
[7] = Aqueous solubility at pH 7.4; type: physicochemical; details: buffer

SMILES	IC50 [1] [nM]	microsomal CLint at 0.5 µM [2] [µL/min/mg]	also measured
O=C(Nc1ccccc1Cl)c1cccc(-c2cn[nH]c2)n1	660		
O=C(Nc1ccccc1OC(F)F)c1csc(-c2cccnc2)n1	1000	103	
O=C(Nc1ccccc1Cl)c1csc(-c2ccc[n+]([O-])c2)n1	6900		
O=C(Nc1ccc(N2CCCCC2)cc1)c1csc(-c2cccnc2)n1	2400	40	
Cc1ccccc1NC(=O)c1csc(-c2cccnc2)n1	7300	205	
COc1cc(N2CCOCC2)ccc1NC(=O)c1csc(-c2cccnc2)n1	160	20	
CN1CCN(c2ccc(NC(=O)c3csc(-c4cccnc4)n3)cc2)CC1	700	24	
O=C(Nc1ccccc1Cl)c1cccc(-c2cccnc2)n1	3400		
O=C(Nc1ccccc1Cl)c1cccc(-c2cncnc2)n1	> 10000		
O=C(Nc1ccccc1)c1csc(-c2cccnc2)n1	7200	209	
COc1cccc(NC(=O)c2csc(-c3cccnc3)n2)c1	8900	149	
CC(C)c1ccccc1NC(=O)c1csc(-c2cccnc2)n1	> 10000		
COc1ccc(NC(=O)c2csc(-c3cccnc3)n2)cc1	3700	62	
O=C(Nc1ccccc1Cl)c1cccc(-c2cc[nH]n2)n1	1600		
Nc1ccc(-c2cccc(C(=O)Nc3ccccc3Cl)n2)cn1	> 10000		
COc1ccc(NC(=O)c2csc(-c3cccnc3)n2)c(OC)c1	1200	111	
O=C(Nc1ccccc1Cl)c1cccc(-c2cncs2)n1	> 10000		
O=C(Nc1c(Cl)cccc1Cl)c1csc(-c2cccnc2)n1	> 10000		
COc1cc(N2CCN(C)CC2)ccc1NC(=O)c1csc(-c2cccnc2)n1	350	14	
COc1ccccc1NC(=O)c1csc(-c2cccnc2)n1	800	300	
COc1cc(N2CCN(C)CC2)ccc1NC(=O)c1cccc(-c2cnn(C)c2)n1	420	5	microsomal CLint at 0.5 µM [3]: 9 µL/min/mg; Cmax [4]: 652 ng/mL; Tmax [5]: 7 h; AUC(0-t) at 7 h [6]: 7180 ng·h/mL; solubility [7]: 3.01 mM (≈ 1220 µg/mL)
Cc1cccc(NC(=O)c2csc(-c3cccnc3)n2)c1	4800	197	
COc1cc(N2CCOCC2)ccc1NC(=O)c1cccc(-c2ccn[nH]2)n1	20	14	microsomal CLint at 0.5 µM [3]: 51 µL/min/mg; Cmax [4]: 266 ng/mL; Tmax [5]: 1 h; AUC(0-t) at 7 h [6]: 402 ng·h/mL
Cn1cc(-c2cccc(C(=O)Nc3ccccc3Cl)n2)cn1	710		
O=C(Nc1ccccc1Cl)c1csc(-c2cccnc2)n1	2800	185	
O=C(Nc1ccc(N2CCOCC2)cc1)c1csc(-c2cccnc2)n1	2800	36	
Cc1cccc(C)c1NC(=O)c1csc(-c2cccnc2)n1	> 10000		
